Several values for one entry are separate records, joined by “and”; a condition that tells them apart may be missing. Identical values can stand only once. Blank lines part the entries; values can stand above or below the molecule they belong to.
Columns and labels:
[1] = instrument: TW, calibrated with phosphatidylcholines (ESI+) and phosphatidylethanolamines (ESI-)
[2] = instrument: DT, single field
[3] = instrument: DT, single field, calibrated with Agilent tune mix (Agilent)
[4] = instrument: TW, calibrated with phosphatidylcholines (ESI+) and phosphatidylethanolamines (ESI-); remark: listed apart in the source
[5] = [M+Na]+; instrument: DT; stepped-field

collision cross section (N2) ([1]; [M-H]-): 268.6 Å²
Compound: CCCCCC/C=C\CCCCCCCC(=O)O[C@H](CO/C=C\CCCCCCCCCCCCCCCC)COP(=O)(O)OC[C@@H](O)CO [PG(p34:1)]

collision cross section (N2) ([1]; [M+H]+): 291.7 Å²
collision cross section (N2) ([1]; [M+K]+): 293.6 Å²
collision cross section (N2) ([1]; [M+Na]+): 294.3 Å²
Compound: CCCCCC/C=C\CCCCCCCCCC(=O)OC(COC(=O)CCCCCCCCCCCCCCC)COP(=O)([O-])OCC(O)COC(=O)C(C)[NH3+] (centres undefined) [AlaPG(34:1)]

collision cross section (N2) ([1]; [M-H]-): 260.2 Å²
Compound: CCCCCC/C=C\CCCCCCCC(=O)O[C@H](COC(=O)CCCCCCCCCCCCCC)COP(=O)(O)OC[C@@H](O)CO [PG(31:1)]

collision cross section (N2) ([1]; [M+H]+): 303.5 Å²
Compound: CCCCCC/C=C\CCCCCCCCCC(=O)OCC(COP(=O)([O-])OCC(O)COC(=O)C(N)CCCC[NH3+])OC(=O)CCCCCCCCCCCCCCCC (centres undefined) [LysPG(35:1)]

collision cross section (N2) ([1]; [M-H]-): 257.1 Å²
Compound: CCCCCCC/C=C\CCCCCCCC(=O)O[C@H](COC(=O)CCCCCCCCCCCC)COP(=O)(O)OC[C@@H](O)CO [PG(30:1)]

collision cross section (N2) ([1]; [M+H]+): 293.5 Å²
Compound: CCCCCC/C=C/CCCCCCCC(=O)OCC(COP(=O)([O-])OCC(O)COC(=O)C(N)CCCC[NH3+])OC(=O)CCCCCCCCCCCCCCC (centres undefined) [LysPG(32:1)]

collision cross section (N2) ([1]; [M+H]+): 287 Å²
Compound: CCCCCC/C=C/CCCCCCCC(=O)OCC(COP(=O)([O-])OCC(O)COC(=O)C(N)CCCC[NH3+])OC(=O)CCCCCCCCCCCCC (centres undefined) [LysPG(30:1)]

collision cross section (N2) ([1]; [M-H]-): 264.5 Å²
Compound: CCCCC/C=C\CCCCCCCC(=O)OC[C@H](COP(=O)(O)OC[C@@H](O)CO)OC(=O)CCCCCCC/C=C\CCCCCCCC [PG(33:2)]

collision cross section (N2) ([1]; [M-H]-): 253.1 Å²
Compound: CCCCCCCCCCCCCCC(=O)O[C@H](COC(=O)CCCCCCCCCCCC)COP(=O)(O)OC[C@@H](O)CO [PG(28:0)]

collision cross section (N2) ([1]; [M-H]-): 266.6 Å²
Compound: CCCCC/C=C\C/C=C\CCCCCCCC(=O)O[C@H](CO/C=C\CCCCCCCCCCCCCC)COP(=O)(O)OC[C@@H](O)CO [PG(p34:2)]

collision cross section (N2) ([1]; [M-H]-): 264.5 Å²
Compound: CCCCCCCCCCCCCCCCC(=O)O[C@H](COC(=O)CCCCCCCCCCCCCC)COP(=O)(O)OC[C@@H](O)CO [PG(16:0/16:0)]

collision cross section (N2) ([1]; [M-H]-): 256.8 Å²
Compound: CCC/C=C\C/C=C\CCCCCCCC(=O)O[C@H](CO/C=C\CCCCCCCCCCCCC)COP(=O)(O)OC[C@@H](O)CO [PG(p31:2)]

collision cross section (N2) ([1]; [M-H]-): 268.6 Å²
Compound: CCCCCCCCCCCCCCCCCCCCC(=O)OC[C@H](COP(=O)(O)OC[C@@H](O)CO)OC(=O)CCCCCCCCCCC [PG(33:0)]

collision cross section (N2) ([1]; [M-H]-): 268.1 Å²
collision cross section (N2) ([3]; [M+H]+): 283.3 Å²
collision cross section (N2) ([3]; [M+NH4]+): 284.9 Å²
collision cross section (N2) ([3]; [M-H]-): 268.7 Å²
collision cross section (N2) ([4]; [M+Na]+): 278.2 Å²
collision cross section (N2) ([4]; [M-H]-): 267.4 Å²
Compound: CCCCC/C=C\C/C=C\CCCCCCCCCCCC(=O)O[C@H](COC(=O)CCCCCCCCCCC)COP(=O)(O)OC[C@@H](O)CO [PG(34:2)]

Second part, the molecule before the results:

Compound: CCCCCCCCCCCCCCCCCCC(=O)OC[C@@H](COC(=O)CCCCCCCCCCC)OC(=O)CCCCCCCCCCCCCCCCCC [TG(50:0)]
collision cross section (N2) ([2]; [M+Na]+): 316.28 Å²

Compound: CCCCCCCCCCCCCCC(=O)OCC(COP(=O)([O-])OCC(O)COC(=O)C(N)CCCC[NH3+])OC(=O)CCCCCCCCCCCCCC (centres undefined) [LysPG(30:0)]
collision cross section (N2) ([1]; [M+H]+): 290.4 Å²

Compound: CCCCC/C=C\C/C=C\CCCCCCCC(=O)OC[C@@H](COC(=O)CCCCCCC/C=C\CCCCC)OC(=O)CCCCCCC/C=C\C/C=C\CCCCC [TG(51:5)]
collision cross section (N2) ([2]; [M+NH4]+): 312.57 Å²

Compound: CCCCCC/C=C\CCCCCCCCCC(=O)OC(COC(=O)CCCCCCCCCCCCCCC)CO[C@@H]1O[C@@H](C(=O)O)[C@H](O)[C@H](O)[C@H]1O (some centres undefined) [GlcADG(16:0/18:1)]
collision cross section (N2) ([1]; [M+NH4]+): 290.1 Å²
collision cross section (N2) ([1]; [M+Na]+): 288.1 Å²
collision cross section (N2) ([1]; [M-H]-): 272.7 Å²

Compound: CCCCCCCCCCCCCCCC(=O)OC(COC(=O)CCCCCCCCCCCCCC)COP(=O)([O-])OCC(O)COC(=O)C(N)CCCC[NH3+] (centres undefined) [LysPG(31:0)]
collision cross section (N2) ([1]; [M+H]+): 293.9 Å²

Compound: CCCCC/C=C\C/C=C\C/C=C\C/C=C\CCCC(=O)OC[C@@H](COC(=O)CCCCCCCCCCC)OC(=O)CCCCCCC/C=C\CCCCCCCC [TG(50:5)]
collision cross section (N2) ([2]; [M+Na]+): 308.34 Å² and 309.51 Å²

Compound: CCCCCCCCCCCCCCCC(=O)OC[C@H](COP(=O)(O)O[C@H]1C(O)C(O)C(O)[C@@H](O)C1O)OC(=O)CCCCCCCCCCCCCCC (some centres undefined) [PI(16:0/16:0)]
collision cross section (N2) ([1]; [M+Na]+): 289.5 Å²
collision cross section (N2) ([1]; [M-H]-): 280.9 Å²

Compound: CCCCC/C=C\C/C=C\C/C=C\CCCCC(=O)O[C@H](COC(=O)CCCCCCC/C=C\CCCCCCC)COC(=O)CCCCCCCCCCCCCCCCCCCCC [TG(57:4)]
collision cross section (N2) ([2]; [M+NH4]+): 334.57 Å² and 337.31 Å²

Compound: CCCCCCCCC/C=C\CCCCCCCC(=O)OC[C@H](COC(=O)CCCCCCCCCCCCCCCCCCCCC)OC(=O)CCCCCCC/C=C\CCCCCCCCC [TG(60:2)]
collision cross section (N2) ([2]; [M+NH4]+): 346.03 Å²

Compound: CCCC/C=C\C/C=C\CCCCCCCC(=O)O[C@@H](COC(=O)CCCCCCCCC/C=C\C/C=C\CCCCC)COC(=O)CCCCCCCCCCC [TG(49:4)]
collision cross section (N2) ([2]; [M+NH4]+): 307.56 Å²

Compound: CCCCCCCCCCCCCCCCCCCCC(=O)O[C@H](COC(=O)CCCCCCCCCCCCC)COP(=O)(O)O [PA(35:0)]
collision cross section (N2) ([1]; [M-H]-): 261 Å²

Compound: CCCCCCCCCCCCCCCCCCCCCC(=O)OC[C@H](COP(=O)(O)O)OC(=O)CCCCCCCCCCC [PA(34:0)]
collision cross section (N2) ([1]; [M-H]-): 257.6 Å²

Compound: CCCCCCCCCCC=CCC=CCC(=O)OC[C@H](CO[C@@H]1O[C@H](CO[C@H]2O[C@H](CO)[C@H](O)C(O)C2O)[C@H](O)C(O)C1O)OC(=O)CC=CCC=CCCCCCCCCCC (some centres undefined) [DGDG(16:1/18:3)]
collision cross section (N2) ([1]; [M+Cl]-): 303.2 Å²
collision cross section (N2) ([1]; [M+NH4]+): 303.5 Å²
collision cross section (N2) ([1]; [M+Na]+): 301.1 Å²
collision cross section (N2) ([1]; [M-H]-): 301.4 Å²

Compound: CCCCC/C=C\C/C=C\C/C=C\CCCCCCC(=O)O[C@H](COC(=O)CCCCCCC/C=C\C/C=C\CCCCC)COP(=O)(O)OCCN [PE(38:5)]
collision cross section (N2) ([3]; [M+H]+): 280.1 Å²
collision cross section (N2) ([3]; [M-H]-): 271.2 Å²
collision cross section (N2) ([4]; [M+H]+): 276 Å²
collision cross section (N2) ([4]; [M-H]-): 269.5 Å²
collision cross section (N2) [5]: 287.2 Å²

Compound: CCCCCCCCCCCCCCCC(=O)OCC(COP(=O)([O-])OCC(O)COC(=O)C(N)CCCC[NH3+])OC(=O)CCCCCCCCCCCCCCC (centres undefined) [LysPG(16:0/16:0)]
collision cross section (N2) ([1]; [M+H]+): 297 Å²
collision cross section (N2) ([1]; [M-H]-): 291.5 Å²

Compound: CCCCCCCCC=CCC=CCC=CCC(=O)OC[C@H](CO[C@@H]1O[C@H](CO[C@H]2O[C@H](CO)[C@H](O)C(O)C2O)[C@H](O)C(O)C1O)OC(=O)CC=CCC=CCC=CCCCCCCCC (some centres undefined) [DGDG(18:3/18:3)]
collision cross section (N2) ([1]; [M+CH3COO]-): 313.7 Å²
collision cross section (N2) ([1]; [M+Cl]-): 305.9 Å²
collision cross section (N2) ([1]; [M+K]+): 302.5 Å²
collision cross section (N2) ([1]; [M+NH4]+): 303.2 Å²
collision cross section (N2) ([1]; [M+Na]+): 301.9 Å²
collision cross section (N2) ([1]; [M-H]-): 303.3 Å²

Compound: CCCCCCCCCCCCCCCC(=O)OCC(CO[C@@H]1O[C@@H](C(=O)O)[C@H](O)[C@H](O)[C@H]1O)OC(=O)CCCCCCCCCCCCCCC (some centres undefined) [GlcADG(16:0/16:0)]
collision cross section (N2) ([1]; [M+NH4]+): 286 Å²
collision cross section (N2) ([1]; [M+Na]+): 282.6 Å²
collision cross section (N2) ([1]; [M-H]-): 267.9 Å²

Compound: CCCCCCCCCCCCCC=CCC(=O)OC[C@H](CO[C@@H]1O[C@H](CO[C@H]2O[C@H](CO)[C@H](O)C(O)C2O)[C@H](O)C(O)C1O)OC(=O)CC=CCCCCCCCCCCCCC (some centres undefined) [DGDG(34:2)]
collision cross section (N2) ([1]; [M+NH4]+): 309 Å²
collision cross section (N2) ([1]; [M+Na]+): 305.2 Å²

Compound: CCCCCCCC=CCC=CCC=CCC(=O)OC[C@H](CO[C@@H]1O[C@H](CO[C@H]2O[C@H](CO)[C@H](O)C(O)C2O)[C@H](O)C(O)C1O)OC(=O)CC=CCC=CCC=CCCCCCCC (some centres undefined) [DGDG(16:3/18:3)]
collision cross section (N2) ([1]; [M+CH3COO]-): 305.8 Å²
collision cross section (N2) ([1]; [M+Cl]-): 299.9 Å²
collision cross section (N2) ([1]; [M+K]+): 295.2 Å²
collision cross section (N2) ([1]; [M+NH4]+): 296.3 Å²
collision cross section (N2) ([1]; [M+Na]+): 294.9 Å²
collision cross section (N2) ([1]; [M-H]-): 296.1 Å²

Compound: CCCCCCCCCCCCCCCCCCC(=O)OC(COC(=O)CCCCCCCCCCCCCC)COP(=O)([O-])OCC(O)COC(=O)C(N)CCCC[NH3+] (centres undefined) [LysPG(34:0)]
collision cross section (N2) ([1]; [M+H]+): 302.5 Å²

Compound: CCCCCCCCCCCCCC=CCC(=O)OC[C@H](CO[C@@H]1O[C@H](CO[C@H]2O[C@H](CO)[C@H](O)C(O)C2O)[C@H](O)C(O)C1O)OC(=O)CC=CCCCCCCCCCCCCC (some centres undefined) [DGDG(16:0/18:2)]
collision cross section (N2) ([1]; [M+CH3COO]-): 312.7 Å²
collision cross section (N2) ([1]; [M+Cl]-): 304.9 Å²
collision cross section (N2) ([1]; [M+NH4]+): 307.5 Å²
collision cross section (N2) ([1]; [M+Na]+): 306.5 Å²
collision cross section (N2) ([1]; [M-H]-): 301.9 Å²

Compound: CCCCCC/C=C\CCCCCCCC(=O)OCC(COP(=O)([O-])OCC(O)COC(=O)C(N)CCCC[NH3+])OC(=O)CCCCCCC/C=C\CCCCCC (centres undefined) [LysPG(32:2)]
collision cross section (N2) ([1]; [M+H]+): 290.8 Å²

Compound: CCCCCCCCCCCCCCCCCCCCC(=O)O[C@H](COC(=O)CCCCCCCCCCC)COP(=O)(O)O [PA(33:0)]
collision cross section (N2) ([1]; [M-H]-): 254.5 Å²

Compound: CCCCCCCCCCCCCCC(=O)OCC(COP(=O)([O-])OCC(O)COC(=O)C(N)CCCC[NH3+])OC(=O)CCCCCCCCCCCC (centres undefined) [LysPG(28:0)]
collision cross section (N2) ([1]; [M+H]+): 284.7 Å²

Compound: CCCCCCCCCCCCCCC=CCC(=O)O[C@H](COC(=O)CC=CCCCCCCCCCCCCCCC)CO[C@@H]1O[C@H](CO[C@H]2O[C@H](CO)[C@H](O)C(O)C2O)[C@H](O)C(O)C1O (some centres undefined) [DGDG(35:2)]
collision cross section (N2) ([1]; M+NH4]+): 315 Å²

Source: the C3SDB collision cross section collection
